Data taken from US20140205631A1, “Stimulation of vaccination by angiotensin peptides” (University of Southern California, priority 2013, published 2014).

Tests used:
[1] = tested on: FIV-p24 antigen; assay: Oral secretion SIgA antibody titers (ELISA) after vaccination of cats; format: in vivo, feline immunodeficiency virus (FIV)
Procedure: (§1) Animals: Eleven (11) female outbred cats>24 weeks old that were free of FIV, feline leukemia virus (FeLV) and feline infectious peritonitis virus were employed. The animals were restrained for the application of test articles to mucous membranes and collection of blood and mucosal secretions. Sedation, if necessary, was induced by subcutaneous administration of ketamine hydrochloride (22 mg/kg) and acepromazine maleate (0.1 mg/kg). Euthanasia was accomplished with a lethal overdose of barbiturates. All activities were approved by the Institutional Animal Care and Use Committee and supervised by veterinary staff.
(§2) Vaccine Preparation: Fel-O-Vax FIV (Fort Dodge Animal Health, Fort Dodge, Iowa) and A(1-7) was combined in a constant volume of 2% hydroxyethyl cellulose (2% HEC). The range of concentrations of A(1-7) ranged from 0 to 10 mg/mL with a constant 0.33 mL of Fel-O-Vax FIV suspended in each mL of the gel applied for vaccination purposes. Two control animals received intramuscular Fel-O-Vax FIV at baseline, week 3 and week 5. One control animal had mucosal vaccination with Fel-O-Vax alone suspended in the 2% HEC without A(1-7) and one control animal received intramuscular Fel-O-Vax FIV with 0.3 mg/kg of A(1-7) at baseline, week 3 and week 5.
(§3) Delivery of angiotensin(1-7) and FIV vaccine to mucosal surfaces: 2% HEC, a viscous gel, was used as the vehicle for the topical delivery of angiotensin(1-7) and FIV vaccine. The topical vaccine was applied to the mucosal surface weekly for 6 consecutive weeks. 1.0 mL was applied to the muzzle for oral mucosal vaccination and 1.0 mL and 0.2 mL was instilled in the rectal and vaginal vaults, respectively for mucosal vaccination at these sites.
(§4) Measurement of Local Immune Response: The Weck-Cel Surgical Spear (Windsor Biomedical, Newton, N.H.) was used to obtain secretions. Once inserted, the sponge is allowed to remain in place for 5 minutes. The secretions were extracted by centrifugation with 300 μL of a buffer solution. The buffer solution is prepared by mixing 50 μL of 100× protease inhibitor cocktail and 250 μL of 10% Igepal (Sigma, St Louis, Mo., U.S.A.) with 4.7 ml of phosphate-buffered saline (PBS) containing 0.25% bovine serum albumin (BSA, Fraction V; Sigma). The 100× protease inhibitor cocktail contains 100 μg/mL aprotinin, 500 μg/mL leupeptin, 100 μg/mL bestatin (all Sigma), and 50 μg/mL 4-(2-Aminoethyl)-benzenesulfonyl fluoride hydrochloride (Roche Applied Sciences, U.S.A.) in phosphate buffered saline.
(§5) The local immune response in mucosal secretions was evaluated against the homologous FIV-p24 antigen (Cell Biolabs, Inc, San Diego, Calif.) or the heterologous HIV-gp120 antigen (ImmunoDiagnostics, Inc, Woburn, Mass.). Plates were prepared with 50 ng/mL FIV-p24 antigen or with 500 ng/mL HIV-gp120 antigen (Bachem Americans, Inc, Torrance, Calif.) incubated over night at 4° C., washed and the target sample added and incubated overnight again at 4° C. The plates were washed and the indicator goat anti-feline IgG (Accurate Chemical & Scientific Corp., Westbury, N.Y., working titer 1:10,000) or goat anti-feline IgA (Accurate Chemical & Scientific Corp., Westbury, N.Y., working titer 1:1,000) added and incubated for 24 hours at 4° C. Following a final wash, substrate solution was added. The stop solution was added after 15 minutes for the IgG reaction and after 30 minutes for the IgA reaction. Plates were read at 450 nm.

[2] = tested on: HIV-gp120 antigen; assay: as above; format: in vivo, human immunodeficiency virus (HIV); conditions: for SIgA anti-HIV-gp120: oral, Week 8, lowest dilution 1:4, elution factor 4-fold
Procedure: as §1, §2, §3, §4, §5

[3] = tested on: FIV-p24 antigen; assay: Vaginal secretion SIgA antibody titers (ELISA) after vaccination of cats; format: in vivo, feline immunodeficiency virus (FIV)
Procedure: as §1, §2, §3, §4, §5

Asp-Arg-Val-Tyr-Ile-His-Pro (DRVYIHP) [A(1-7)]
SIgA Anti-FIV-p24 ([1]; IM Fel-O-Vax FIV + 0.3 mg/kg A(1-7), Week 2, lowest dilution Undilute): Negative
SIgA Anti-FIV-p24 ([1]; IM Fel-O-Vax FIV + 0.3 mg/kg A(1-7), Week 4, lowest dilution Undilute): Undilute
SIgA Anti-FIV-p24 ([1]; IM Fel-O-Vax FIV + 0.3 mg/kg A(1-7), Week 8, lowest dilution Undilute): Undilute
SIgA Anti-FIV-p24 ([1]; topical Fel-O-Vax FIV + 0.1 A(1-7) in 2% HEC, Week 2, lowest dilution Undilute): Negative
SIgA Anti-FIV-p24 ([1]; topical Fel-O-Vax FIV + 0.1 A(1-7) in 2% HEC, Week 4, lowest dilution Undilute): Negative
SIgA Anti-FIV-p24 ([1]; topical Fel-O-Vax FIV + 0.1 A(1-7) in 2% HEC, Week 6, lowest dilution Undilute): Undilute
SIgA Anti-FIV-p24 ([1]; topical Fel-O-Vax FIV + 0.1 A(1-7) in 2% HEC, Week 8, lowest dilution Undilute): Negative
SIgA Anti-FIV-p24 ([1]; topical Fel-O-Vax FIV + 0.2 A(1-7) in 2% HEC, Week 2, lowest dilution Undilute): Negative
SIgA Anti-FIV-p24 ([1]; topical Fel-O-Vax FIV + 0.2 A(1-7) in 2% HEC, Week 4, lowest dilution Undilute): Negative
SIgA Anti-FIV-p24 ([1]; topical Fel-O-Vax FIV + 0.2 A(1-7) in 2% HEC, Week 6, lowest dilution Undilute): Negative
SIgA Anti-FIV-p24 ([1]; topical Fel-O-Vax FIV + 0.2 A(1-7) in 2% HEC, Week 8, lowest dilution Undilute): Negative
SIgA Anti-FIV-p24 ([1]; topical Fel-O-Vax FIV + 0.3 A(1-7) in 2% HEC, Week 2, lowest dilution Undilute): Negative
SIgA Anti-FIV-p24 ([1]; topical Fel-O-Vax FIV + 0.3 A(1-7) in 2% HEC, Week 4, lowest dilution Undilute): Negative
SIgA Anti-FIV-p24 ([1]; topical Fel-O-Vax FIV + 0.3 A(1-7) in 2% HEC, Week 6, lowest dilution Undilute): Negative
SIgA Anti-FIV-p24 ([1]; topical Fel-O-Vax FIV + 0.3 A(1-7) in 2% HEC, Week 8, lowest dilution Undilute): Negative
SIgA Anti-FIV-p24 ([1]; topical Fel-O-Vax FIV + 0.4 A(1-7) in 2% HEC, Week 4, lowest dilution Undilute): Undilute
SIgA Anti-FIV-p24 ([1]; topical Fel-O-Vax FIV + 0.4 A(1-7) in 2% HEC, Week 6, lowest dilution Undilute): Negative
SIgA Anti-FIV-p24 ([1]; topical Fel-O-Vax FIV + 5.0 A(1-7) in 2% HEC, Week 2, lowest dilution Undilute): Undilute
SIgA Anti-FIV-p24 ([1]; topical Fel-O-Vax FIV + 7.5 A(1-7) in 2% HEC, Week 4, lowest dilution Undilute): Negative
SIgA Anti-FIV-p24 ([1]; topical Fel-O-Vax FIV + 10.0 A(1-7) in 2% HEC, Week 2, lowest dilution Undilute): Negative
SIgA Anti-FIV-p24 ([1]; topical Fel-O-Vax FIV + 10.0 A(1-7) in 2% HEC, Week 4, lowest dilution Undilute): Negative
SIgA Anti-FIV-p24 ([1]; topical Fel-O-Vax FIV + 10.0 A(1-7) in 2% HEC, Week 6, lowest dilution Undilute): Negative
SIgA Anti-FIV-p24 ([1]; topical Fel-O-Vax FIV + 10.0 A(1-7) in 2% HEC, Week 8, lowest dilution Undilute): Negative
SIgA-HIV-gp120 antibodies in oral secretions ([2]; A(1-7) combined with the intramuscular injections of Fel-O-Vax FIV): even higher titers
dose response of oral SIgA-anti-HIV-gp120 antibody titers ([2]; increasing A(1-7) concentrations in the topical vaccine): initial raise and then decline
SIgA anti-HIV-gp120 ([2]; topical Fel-O-Vax FIV + 7.5 A(1-7) in 2% HEC): Negative
SIgA anti-HIV-gp120 ([2]; topical Fel-O-Vax FIV + 10.0 A(1-7) in 2% HEC): Negative
SIgA-anti-HIV-gp120 antibody titers in oral secretions ([2]; topical application of the FIV antigen and A(1-7), compared with intramuscular): Comparable levels
SIgA against FIV-p24 in vaginal secretions ([3]; Topical application of FIV antigen with A(1-7)): only low levels
SIgA Anti-FIV-p24 ([3]; vaginal, IM Fel-O-Vax FIV + 0.3 mg/kg A(1-7), Week 2, lowest dilution Undilute): Negative
